In patent publication US9708314B2, “Heterocyclic amide compound” (NISSAN CHEMICAL INDUSTRIES, LTD., priority 2013, dated 2017):

Columns and labels:
Format in all cases: in vivo
Cyperus difformis = assay: Test Example 3: herbicidal effect by application to foliage (Wagner pot, water depth 0.1-0.5 cm); conditions: Nineteenth Table; application to foliage; application herbicide amount 320 g/ha
Procedure, shortened: (§1)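 Alluvial soil in 1/10000 are Wagner pots, sown and grown 14 days in a 25–30 °C greenhouse. An emulsifiable concentrate diluted in water to the set dose (g/ha) was sprayed on stems and leaves. Effect scored three weeks later on a 0–5 scale: 5 = ≥90% herbicidal ratio, 0 = ≤5%.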

[1] = system: Echinochloa crus-galli var. crus-galli; assay: as above; conditions: Nineteenth Table; application to foliage; application herbicide amount 320 g/ha
Procedure, shortened: as §1

Leptochloa chinensis = assay: as above; conditions: Nineteenth Table; application to foliage; application herbicide amount 320 g/ha
Procedure, shortened: as §1

Glycine max = assay: Test Example 4: effect on crop by application to foliage (diluvial soil, plastic box); conditions: 320 g/ha; for c (Glycine max) effect on crop grade: foliage application
Procedure, shortened: (§2)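 Emulsion-formulated compound, diluted to a predetermined g/ha dose, applied by small sprayer to leaves and stems of 14-day-old seedlings grown in sterilized diluvial soil. Effect rated on 0–5 herbicidal-ratio scale three weeks on.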

[2] = system: Beta vulgaris ssp. vulgaris; assay: as above; conditions: 320 g/ha; for f (Beta vulgaris ssp. vulgaris) effect on crop grade: foliage application
Procedure, shortened: as §2

Zea mays = assay: as above; conditions: 320 g/ha; for b (Zea mays) effect on crop grade: foliage application
Procedure, shortened: as §2

Brassica campestris L. = assay: as above; conditions: 320 g/ha; for g (Brassica campestris L.) effect on crop grade: foliage application
Procedure, shortened: as §2

[3] = system: directly sowed Oryza sativa; assay: as above; conditions: 320 g/ha; for d (directly sowed Oryza sativa) effect on crop grade: foliage application
Procedure, shortened: as §2

Triticum aestivum = assay: as above; conditions: 320 g/ha; for e (Triticum aestivum) effect on crop grade: foliage application
Procedure, shortened: as §2

Chenopodium album = assay: Test Example 4: herbicidal effect by application to foliage (diluvial soil, plastic box); conditions: 320 g/ha; for O (Chenopodium album) herbicidal effect grade: foliage application
Procedure, shortened: as §2

Avena fatua = assay: as above; conditions: 320 g/ha; for I (Avena fatua) herbicidal effect grade: foliage application
Procedure, shortened: as §2

Amaranthus retroflexus = assay: as above; conditions: 320 g/ha; for N (Amaranthus retroflexus) herbicidal effect grade: foliage application
Procedure, shortened: as §2

Lolium multiflorum Lam. = assay: as above; conditions: 320 g/ha; for K (Lolium multiflorum Lam.) herbicidal effect grade: foliage application
Procedure, shortened: as §2

Stellaria media = assay: as above; conditions: 320 g/ha; for P (Stellaria media) herbicidal effect grade: foliage application
Procedure, shortened: as §2

Veronica persica = assay: as above; conditions: 320 g/ha; for R (Veronica persica) herbicidal effect grade: foliage application
Procedure, shortened: as §2

[4] = system: Echinochloa crus-galli var. crus-galli; assay: as above; conditions: 320 g/ha; for H (Echinochloa crus-galli var. crus-galli) herbicidal effect grade: foliage application
Procedure, shortened: as §2

Setaria viridis = assay: as above; conditions: 320 g/ha; for G (Setaria viridis) herbicidal effect grade: foliage application
Procedure, shortened: as §2

Apera spica-venti. = assay: as above; conditions: 320 g/ha; for L (Apera spica-venti.) herbicidal effect grade: foliage application
Procedure, shortened: as §2

Alopecurus myosuroides = assay: as above; conditions: 320 g/ha; for J (Alopecurus myosuroides) herbicidal effect grade: foliage application
Procedure, shortened: as §2

Galium spurium = assay: as above; conditions: 320 g/ha; for Q (Galium spurium) herbicidal effect grade: foliage application
Procedure, shortened: as §2

Digitaria ciliaris = assay: as above; conditions: 320 g/ha; for F (Digitaria ciliaris) herbicidal effect grade: foliage application
Procedure, shortened: as §2

Abutilon theophrasti = assay: as above; conditions: 320 g/ha; for M (Abutilon theophrasti) herbicidal effect grade: foliage application
Procedure, shortened: as §2

Compound | E (herbicidal effect grade) (Cyperus difformis) | H (herbicidal effect grade) [1] | D (herbicidal effect grade) (Leptochloa chinensis) | c (Glycine max) effect on crop grade (Glycine max) | f (Beta vulgaris ssp. vulgaris) effect on crop grade [2] | b (Zea mays) effect on crop grade (Zea mays) | g (Brassica campestris L.) effect on crop grade (Brassica campestris L.) | d (directly sowed Oryza sativa) effect on crop grade [3] | e (Triticum aestivum) effect on crop grade (Triticum aestivum) | O (Chenopodium album) herbicidal effect grade (Chenopodium album) | I (Avena fatua) herbicidal effect grade (Avena fatua) | N (Amaranthus retroflexus) herbicidal effect grade (Amaranthus retroflexus) | K (Lolium multiflorum Lam.) herbicidal effect grade (Lolium multiflorum Lam.) | P (Stellaria media) herbicidal effect grade (Stellaria media) | R (Veronica persica) herbicidal effect grade (Veronica persica) | H (Echinochloa crus-galli var. crus-galli) herbicidal effect grade [4] | G (Setaria viridis) herbicidal effect grade (Setaria viridis) | L (Apera spica-venti.) herbicidal effect grade (Apera spica-venti.) | J (Alopecurus myosuroides) herbicidal effect grade (Alopecurus myosuroides) | Q (Galium spurium) herbicidal effect grade (Galium spurium) | further results
CC(C)c1nnc2c(C(=O)Nc3nnnn3Cc3ccc(Cl)cc3)ccc(C(F)(F)F)n12 [2-093] | 5 (Herbicidal ratio of 90% or more (almost completely withered)) | 1 (Herbicidal ratio of 5% or more and less than 20%) | 2 (Herbicidal ratio of 20% or more and less than 40%) |  |  |  |  |  |  |  |  |  |  |  |  |  |  |  |  |  | effect on crop, c (Glycine max) (Glycine max; application to foliage): 0 (Herbicidal ratio of 5% or less (almost no effect)); effect on crop, f (Beta vulgaris ssp. vulgaris) ([2]; application to foliage): 2 (Herbicidal ratio of 20% or more and less than 40%); effect on crop, b (Zea mays) (Zea mays; application to foliage): 0 (Herbicidal ratio of 5% or less (almost no effect)); effect on crop, g (Brassica campestris L.) (Brassica campestris L.; application to foliage): 1 (Herbicidal ratio of 5% or more and less than 20%); effect on crop, d (directly sowed Oryza sativa) ([3]; application to foliage): 3 (Herbicidal ratio of 40% or more and less than 70%); effect on crop, e (Triticum aestivum) (Triticum aestivum; application to foliage): 1 (Herbicidal ratio of 5% or more and less than 20%); herbicidal effect, O (Chenopodium album) (Chenopodium album; application to foliage): 5 (Herbicidal ratio of 90% or more (almost completely withered)); herbicidal effect, I (Avena fatua) (Avena fatua; application to foliage): 1 (Herbicidal ratio of 5% or more and less than 20%); herbicidal effect, N (Amaranthus retroflexus) (Amaranthus retroflexus; application to foliage): 2 (Herbicidal ratio of 20% or more and less than 40%); herbicidal effect, K (Lolium multiflorum Lam.) (Lolium multiflorum Lam.; application to foliage): 1 (Herbicidal ratio of 5% or more and less than 20%); herbicidal effect, P (Stellaria media) (Stellaria media; application to foliage): 5 (Herbicidal ratio of 90% or more (almost completely withered)); herbicidal effect, R (Veronica persica) (Veronica persica; application to foliage): 2 (Herbicidal ratio of 20% or more and less than 40%); herbicidal effect, H (Echinochloa crus-galli var. crus-galli) ([4]; application to foliage): 1 (Herbicidal ratio of 5% or more and less than 20%); herbicidal effect, G (Setaria viridis) (Setaria viridis; application to foliage): 0 (Herbicidal ratio of 5% or less (almost no effect)); herbicidal effect, L (Apera spica-venti.) (Apera spica-venti.; application to foliage): 1 (Herbicidal ratio of 5% or more and less than 20%); herbicidal effect, J (Alopecurus myosuroides) (Alopecurus myosuroides; application to foliage): 1 (Herbicidal ratio of 5% or more and less than 20%); herbicidal effect, Q (Galium spurium) (Galium spurium; application to foliage): 2 (Herbicidal ratio of 20% or more and less than 40%); herbicidal effect, F (Digitaria ciliaris) (Digitaria ciliaris; application to foliage): 1 (Herbicidal ratio of 5% or more and less than 20%); herbicidal effect, M (Abutilon theophrasti) (Abutilon theophrasti; application to foliage): 3 (Herbicidal ratio of 40% or more and less than 70%)
Cc1cc(-c2nnc3c(C(=O)Nc4nnnn4C)ccc(C(F)(F)F)n23)n(C)n1 [2-062] | 5 (Herbicidal ratio of 90% or more (almost completely withered)) | 5 (Herbicidal ratio of 90% or more (almost completely withered)) | 5 (Herbicidal ratio of 90% or more (almost completely withered)) | 5 (Herbicidal ratio of 90% or more (almost completely withered)) | 5 (Herbicidal ratio of 90% or more (almost completely withered)) | 5 (Herbicidal ratio of 90% or more (almost completely withered)) | 5 (Herbicidal ratio of 90% or more (almost completely withered)) | 5 (Herbicidal ratio of 90% or more (almost completely withered)) | 4 (Herbicidal ratio of 70% or more and less than 90%) | 5 (Herbicidal ratio of 90% or more (almost completely withered)) | 5 (Herbicidal ratio of 90% or more (almost completely withered)) | 5 (Herbicidal ratio of 90% or more (almost completely withered)) | 5 (Herbicidal ratio of 90% or more (almost completely withered)) | 5 (Herbicidal ratio of 90% or more (almost completely withered)) | 5 (Herbicidal ratio of 90% or more (almost completely withered)) | 5 (Herbicidal ratio of 90% or more (almost completely withered)) | 5 (Herbicidal ratio of 90% or more (almost completely withered)) | 5 (Herbicidal ratio of 90% or more (almost completely withered)) | 4 (Herbicidal ratio of 70% or more and less than 90%) | 5 (Herbicidal ratio of 90% or more (almost completely withered)) | F (Digitaria ciliaris) herbicidal effect grade (Digitaria ciliaris): 5 (Herbicidal ratio of 90% or more (almost completely withered)); M (Abutilon theophrasti) herbicidal effect grade (Abutilon theophrasti): 5 (Herbicidal ratio of 90% or more (almost completely withered))
CSCCc1nnc2c(C(=O)Nc3nnnn3C)ccc(C(F)(F)F)n12 [2-057] | 5 (Herbicidal ratio of 90% or more (almost completely withered)) | 5 (Herbicidal ratio of 90% or more (almost completely withered)) | 5 (Herbicidal ratio of 90% or more (almost completely withered)) | 2 (Herbicidal ratio of 20% or more and less than 40%) | 5 (Herbicidal ratio of 90% or more (almost completely withered)) | 4 (Herbicidal ratio of 70% or more and less than 90%) | 5 (Herbicidal ratio of 90% or more (almost completely withered)) | 5 (Herbicidal ratio of 90% or more (almost completely withered)) | 4 (Herbicidal ratio of 70% or more and less than 90%) | 5 (Herbicidal ratio of 90% or more (almost completely withered)) | 4 (Herbicidal ratio of 70% or more and less than 90%) | 5 (Herbicidal ratio of 90% or more (almost completely withered)) | 4 (Herbicidal ratio of 70% or more and less than 90%) | 5 (Herbicidal ratio of 90% or more (almost completely withered)) | 5 (Herbicidal ratio of 90% or more (almost completely withered)) | 5 (Herbicidal ratio of 90% or more (almost completely withered)) | 5 (Herbicidal ratio of 90% or more (almost completely withered)) | 4 (Herbicidal ratio of 70% or more and less than 90%) | 4 (Herbicidal ratio of 70% or more and less than 90%) | 4 (Herbicidal ratio of 70% or more and less than 90%) | F (Digitaria ciliaris) herbicidal effect grade (Digitaria ciliaris): 5 (Herbicidal ratio of 90% or more (almost completely withered)); M (Abutilon theophrasti) herbicidal effect grade (Abutilon theophrasti): 5 (Herbicidal ratio of 90% or more (almost completely withered))
